Data from the supplement of paper PMC10307832.

Assays:
Assay in all cases: relative viability (nuclei count vs DMSO), 5 days (fraction); higher = more cells survive
VX-11e + Navitoclax = compound: CC1=CN=C(N=C1C2=CNC(=C2)C(=O)N[C@H](CO)C3=CC(=CC=C3)Cl)NC4=C(C=C(C=C4)F)Cl [VX-11e] + CC1(C)CCC(c2ccc(Cl)cc2)=C(CN2CCN(c3ccc(C(=O)NS(=O)(=O)c4ccc(N[C@H](CCN5CCOCC5)CSc5ccccc5)c(S(=O)(=O)C(F)(F)F)c4)cc3)CC2)C1 [Navitoclax] (partner 0.5 µM)
Method in brief: (§1)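 Nuclei were stained with Hoechst during a one-step fixation (final 0.05% Triton X-100, 1% formaldehyde, 1 ug/ml Hoechst) carried out 5 days after dosing, then counted on 4× images. The cells, lung cancer lines in 1536-well plates, had been dosed by pin tool the day after seeding with one drug alone or a fixed anchor-drug dose plus five library-drug doses (not always all listed) in √10 steps. Relative viability is the nuclei count in treated wells divided by that in vehicle wells, and each value is the median of duplicate plates.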

VX-11e + Crizotinib = compound: CC1=CN=C(N=C1C2=CNC(=C2)C(=O)N[C@H](CO)C3=CC(=CC=C3)Cl)NC4=C(C=C(C=C4)F)Cl [VX-11e] + C[C@@H](Oc1cc(-c2cnn(C3CCNCC3)c2)cnc1N)c1c(Cl)ccc(F)c1Cl [Crizotinib] (partner 1 µM)
Method in brief: as §1

VX-11e + Tozasertib = compound: CC1=CN=C(N=C1C2=CNC(=C2)C(=O)N[C@H](CO)C3=CC(=CC=C3)Cl)NC4=C(C=C(C=C4)F)Cl [VX-11e] + Cc1cc(Nc2cc(N3CCN(C)CC3)nc(Sc3ccc(NC(=O)C4CC4)cc3)n2)n[nH]1 [Tozasertib] (partner 0.1 µM)
Method in brief: as §1

VX-11e + Vorinostat = compound: CC1=CN=C(N=C1C2=CNC(=C2)C(=O)N[C@H](CO)C3=CC(=CC=C3)Cl)NC4=C(C=C(C=C4)F)Cl [VX-11e] + O=C(CCCCCCC(=O)Nc1ccccc1)NO [Vorinostat] (partner 1 µM)
Method in brief: as §1

| Cell Line | relative viability (VX-11e + Navitoclax; first compound 0.04 µM) | relative viability (VX-11e + Navitoclax; first compound 0.1265 µM) | relative viability (VX-11e + Navitoclax; first compound 0.4 µM) | relative viability (VX-11e + Navitoclax; first compound 1.265 µM) | relative viability (VX-11e + Navitoclax; first compound 4 µM) | relative viability (VX-11e + Crizotinib; first compound 0.04 µM) | relative viability (VX-11e + Crizotinib; first compound 0.1265 µM) | relative viability (VX-11e + Crizotinib; first compound 0.4 µM) | relative viability (VX-11e + Crizotinib; first compound 1.265 µM) | relative viability (VX-11e + Crizotinib; first compound 4 µM) | relative viability (VX-11e + Tozasertib; first compound 0.1265 µM) | relative viability (VX-11e + Tozasertib; first compound 0.4 µM) | relative viability (VX-11e + Tozasertib; first compound 1.265 µM) | relative viability (VX-11e + Tozasertib; first compound 4 µM) | relative viability (VX-11e + Vorinostat; first compound 0.04 µM) | relative viability (VX-11e + Vorinostat; first compound 0.1265 µM) | relative viability (VX-11e + Vorinostat; first compound 0.4 µM) | relative viability (VX-11e + Vorinostat; first compound 1.265 µM) | relative viability (VX-11e + Vorinostat; first compound 4 µM) | relative viability (VX-11e + Tozasertib; first compound 0.04 µM) |
| --- | --- | --- | --- | --- | --- | --- | --- | --- | --- | --- | --- | --- | --- | --- | --- | --- | --- | --- | --- | --- |
| HCC-78 | 0.878 | 0.69 | 0.769 | 0.455 | 0.762 | 0.351 | 0.307 | 0.353 | 0.285 | 0.285 | 0.538 | 0.386 | 0.324 | 0.487 | 0.479 | 0.42 | 0.358 | 0.482 | 0.405 | – |
| NCI-H1755 | 1.06 | 0.956 | 0.972 | 0.956 | 0.558 | 0.905 | 0.849 | 0.845 | 0.873 | 0.491 | 0.487 | 0.513 | 0.527 | 0.402 | 0.795 | 0.686 | 0.782 | 0.764 | 0.598 | 0.59 |
| NCI-H2405 | 1.03 | 0.921 | – | 0.592 | 0.126 | 0.892 | 0.805 | 0.821 | 0.766 | 0.505 | 0.757 | 0.768 | 0.779 | 0.256 | 0.993 | 0.866 | 1.22 | 0.918 | 0.565 | 0.804 |
| PC-3 [JPC-3] | 0.786 | 0.803 | 0.682 | 0.831 | 0.743 | 0.993 | 0.963 | 0.93 | 1.07 | 0.845 | 0.863 | 0.829 | 0.926 | 0.729 | 0.752 | 0.708 | 1.01 | 0.646 | 0.755 | 0.892 |
| NCI-H2023 | 1.02 | 0.879 | 0.966 | 1 | 0.405 | 0.633 | 0.606 | 0.519 | 0.427 | 0.338 | 0.161 | 0.161 | 0.142 | 0.0967 | 0.709 | 0.604 | 0.289 | 0.318 | 0.209 | 0.279 |
| CAL-12T | 1.14 | 1.3 | 1.09 | 1.2 | 0.422 | 0.697 | 0.632 | 0.633 | 0.543 | 0.394 | 0.25 | 0.26 | 0.247 | 0.155 | 0.634 | 0.724 | 0.649 | 0.84 | 0.285 | 0.384 |
